# Like-named read-outs stand apart in the source and are kept apart here. Marks after values point to notes of the source that are not given here.
# What was measured:
# Test in all cases: microbe, parasite or virus in culture
# [1] = test system: A. baumannii; settings: mode of 6 replicates; for MIC: Acinetobacter baumannii
# Outline: (§1)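 Broth microdilution in MHB, 2-fold 12-point series from 128 or 64 down to 0.06 or 0.03 μg mL^−1, 5 × 10^5 CFU mL^−1. Extra runs in CAMHB per CLSI and in MHB with 1% agarose; n ≥ 6.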
# [2] = test system: E. coli; settings: for MIC: Escherichia coli
# Outline: as §1
# [3] = test system: K. pneumoniae; settings: mode of 6 replicates; for MIC: Klebsiella pneumoniae
# Outline: as §1
# [4] = test system: P. aeruginosa; settings: mode of 6 replicates; for MIC: Pseudomonas aeruginosa
# Outline: as §1
# [5] = test system: S. aureus
# Outline: as §1
# [6] = test system: S. enterica Typhi
# Outline: as §1
# [7] = test system: A. baumannii clinical isolates
# Outline: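 MIC90 from CLSI broth microdilution (M07-A9) in two clinical-isolate panels. US panel (331 isolates, 2010-2012): AA139 diluted in 0.01% acetic acid/0.1% BSA. Worldwide panel (445 isolates, 2011-2013, four regions): CAMHB, with 0.002% Tween 80 added for AA139 and polymyxin B.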
# [8] = Worldwide isolates 2011-2013, A. baumannii n = 108
compound,measurement,setting,value
"CNC(C)C1CCC(N)C(OC2C(N)CC(N)C(OC3OCC(C)(O)C(NC)C3O)C2O)O1 (stereo not shown) [Gentamicin, gentamicin, reference compound]",MIC,"[1]; ATCC19636, read-out: BMD MIC, A. baumannii ATCC 19636 type strain, CAMHB",16 µg/mL
same,MIC,"[1]; ATCC19636, read-out: BMD MIC, A. baumannii ATCC 19636 type strain, MHB",32 µg/mL
same,MIC,"[1]; read-out: BMD MIC, A. baumannii Greece CI, XDR, PmxR, MHB",> 32 µg/mL
same,MIC,"[2]; ATCC25922, read-out: BMD MIC, E. coli ATCC 25922 FDA control strain, CAMHB, mode of 6 replicates",≤ 0.25 µg/mL
same,MIC,"[2]; ATCC25922, read-out: BMD MIC, E. coli ATCC 25922 FDA control strain, MHB, mode of 6 independent biological replicates",1 µg/mL
same,MIC,"[2]; ATCC700926|MG1655, read-out: BMD MIC, E. coli ATCC 700926 K12 (MG1655), CAMHB, mode of 6 replicates",0.5 µg/mL
same,MIC,"[2]; ATCC700928, read-out: BMD MIC, E. coli ATCC 700928 CFT073 UPEC, CAMHB, mode of 6 replicates",0.5 µg/mL
same,MIC,"[2]; read-out: BMD MIC, E. coli CI 12-6-83 Hong Kong, mcr-1 pos, ESBL, CAMHB, mode of 6 replicates",0.5 µg/mL
same,MIC,"[3]; ATCC13883, read-out: BMD MIC, K. pneumoniae ATCC 13883 type strain (polymyxin/colistin heteroresistant), MHB",0.5 µg/mL
same,MIC,"[3]; ATCC700603, read-out: BMD MIC, K. pneumoniae ATCC 700603 (K6), MDR, OXA-2/SHV-18, CAMHB",4 µg/mL
same,MIC,"[3]; ATCC700603, read-out: BMD MIC, K. pneumoniae ATCC 700603 (K6), MDR, OXA-2/SHV-18, MHB",4 µg/mL
same,MIC,"[3]; BAA2146, read-out: BMD MIC, K. pneumoniae BAA-2146, MDR, ESBL, NDM-1 pos, MHB",> 32 µg/mL
same,MIC,"[4]; ATCC27853, read-out: BMD MIC, P. aeruginosa ATCC 27853 control strain, CAMHB",1 µg/mL
same,MIC,"[4]; ATCC27853, read-out: BMD MIC, P. aeruginosa ATCC 27853 control strain, MHB",1 µg/mL
same,MIC,"[4]; read-out: BMD MIC, P. aeruginosa FADDI-070, MDR, PmxR, MHB/CAMHB",32 µg/mL
same,MIC,"[5]; Staphylococcus aureus, ATCC25923 / MSSA, read-out: BMD MIC",4 µg/mL
same,MIC,"[6]; Salmonella enterica, ATCC14028 / TYPHI, read-out: BMD MIC",1 µg/mL
same,MIC90,[7]; Acinetobacter baumannii,> 32 µg/mL
same,MIC90,"[7]; US isolates 2010–2012, A. baumannii MDR, n = 19",>32 µg/mL
same,MIC90,"[7]; US isolates 2010–2012, A. baumannii XDR, n = 31",>32 µg/mL
same,MIC50,[7]; [8],> 32 µg/mL
same,MIC90,[7]; [8],> 32 µg/mL
colistin,BMD MIC,"[1]; A. baumannii ATCC 19636 type strain, CAMHB",0.06 µg/mL
same,BMD MIC,"[1]; A. baumannii ATCC 19636 type strain, MHB",0.06 µg/mL
same,BMD MIC,"[1]; A. baumannii Greece CI, XDR, PmxR, MHB",>32 µg/mL
same,BMD MIC,"[2]; E. coli ATCC 25922 FDA control strain, CAMHB, mode of 6 replicates",0.06 to 0.125 µg/mL
same,BMD MIC,"[2]; E. coli ATCC 25922 FDA control strain, MHB, mode of 6 independent biological replicates",0.25 µg/mL
same,BMD MIC,"[2]; E. coli ATCC 700926 K12 (MG1655), CAMHB, mode of 6 replicates",≤0.03 µg/mL
same,BMD MIC,"[2]; E. coli ATCC 700928 CFT073 UPEC, CAMHB, mode of 6 replicates",≤0.25 µg/mL
same,BMD MIC,"[2]; E. coli CI 12-6-83 Hong Kong, mcr-1 pos, ESBL, CAMHB, mode of 6 replicates",4 µg/mL
same,BMD MIC,"[3]; K. pneumoniae ATCC 13883 type strain (polymyxin/colistin heteroresistant), MHB",0.03-4# μg mL-1
same,BMD MIC,"[3]; K. pneumoniae ATCC 700603 (K6), MDR, OXA-2/SHV-18, CAMHB",0.125 µg/mL
same,BMD MIC,"[3]; K. pneumoniae ATCC 700603 (K6), MDR, OXA-2/SHV-18, MHB",0.03 µg/mL
same,BMD MIC,"[3]; K. pneumoniae BAA-2146, MDR, ESBL, NDM-1 pos, MHB",0.06 µg/mL
same,BMD MIC,"[3]; K. pneumoniae Greece CI 8_GR_13, XDR, KPC-2, PmxR, MHB",>64 µg/mL
same,BMD MIC,"[4]; P. aeruginosa ATCC 27853 control strain, CAMHB",0.125 µg/mL
same,BMD MIC,"[4]; P. aeruginosa ATCC 27853 control strain, MHB",0.125 µg/mL
same,BMD MIC,"[4]; P. aeruginosa FADDI-070, MDR, PmxR, MHB/CAMHB",64 µg/mL
same,BMD MIC,"[5]; S. aureus ATCC 25923 MSSA, MHB, mode of 6 replicates",>128 µg/mL
same,BMD MIC,"[6]; S. enterica Typhi ATCC 14028 control strain, CDC 6516-60, CAMHB, mode of 6 replicates",0.03 µg/mL
same,MIC,"[7]; US isolates 2010-2012, isolate CID 1919446, Rep 1",2 µg/mL
same,MIC,"[7]; US isolates 2010-2012, isolate CID 1919446, Rep 2",1 µg/mL
same,MIC,"[7]; US isolates 2010-2012, isolate CID 1919519, Rep 1",1 µg/mL
same,MIC,"[7]; US isolates 2010-2012, isolate CID 1919519, Rep 2",0.5 µg/mL
same,MIC,"[7]; US isolates 2010-2012, isolate CID 1919714, Rep 1",> 32 µg/mL
same,MIC,"[7]; US isolates 2010-2012, isolate CID 1919714, Rep 2",> 32 µg/mL
same,MIC,"[7]; US isolates 2010-2012, isolate CID 1919942, Rep 1",2 µg/mL
same,MIC,"[7]; US isolates 2010-2012, isolate CID 1919942, Rep 2",2 µg/mL
same,MIC,"[7]; US isolates 2010-2012, isolate CID 1930670, Rep 1",4 µg/mL
same,MIC,"[7]; US isolates 2010-2012, isolate CID 1930670, Rep 2",2 µg/mL
same,MIC,"[7]; US isolates 2010-2012, isolate CID 1930676, Rep 1",4 µg/mL
same,MIC,"[7]; US isolates 2010-2012, isolate CID 1930676, Rep 2",2 µg/mL
same,MIC,"[7]; US isolates 2010-2012, isolate CID 2727597, Rep 1",> 32 µg/mL
same,MIC,"[7]; US isolates 2010-2012, isolate CID 2727597, Rep 2",32 µg/mL
same,MIC,"[7]; US isolates 2010-2012, isolate CID 2727598, Rep 1",2 µg/mL
same,MIC,"[7]; US isolates 2010-2012, isolate CID 2727598, Rep 2",2 µg/mL
same,MIC,"[7]; US isolates 2010-2012, isolate CID 2727898, Rep 1",8 µg/mL
same,MIC,"[7]; US isolates 2010-2012, isolate CID 2727898, Rep 2",8 µg/mL
same,MIC,"[7]; US isolates 2010-2012, isolate CID 2728115, Rep 1",4 µg/mL
same,MIC,"[7]; US isolates 2010-2012, isolate CID 2728115, Rep 2",1 µg/mL
same,MIC,"[7]; US isolates 2010-2012, isolate CID 2728119, Rep 1",2 µg/mL
same,MIC,"[7]; US isolates 2010-2012, isolate CID 2728119, Rep 2",2 µg/mL
same,MIC,"[7]; US isolates 2010-2012, isolate CID 2728650, Rep 1",8 µg/mL
same,MIC,"[7]; US isolates 2010-2012, isolate CID 2728650, Rep 2",2 µg/mL
same,MIC,"[7]; US isolates 2010-2012, isolate CID 2728663, Rep 1",0.5 µg/mL
same,MIC,"[7]; US isolates 2010-2012, isolate CID 2728663, Rep 2",0.5 µg/mL
same,MIC,"[7]; US isolates 2010-2012, isolate CID 2732481, Rep 1",> 32 µg/mL
same,MIC,"[7]; US isolates 2010-2012, isolate CID 2732481, Rep 2",> 32 µg/mL
same,MIC,"[7]; US isolates 2010-2012, isolate CID 2732486, Rep 1",1 µg/mL
same,MIC,"[7]; US isolates 2010-2012, isolate CID 2732486, Rep 2",1 µg/mL
same,MIC,"[7]; US isolates 2010-2012, isolate CID 2762740, Rep 1",> 32 µg/mL
same,MIC,"[7]; US isolates 2010-2012, isolate CID 2762740, Rep 2",32 µg/mL
same,MIC,"[7]; US isolates 2010-2012, isolate CID 2801947, Rep 1",1 µg/mL
same,MIC,"[7]; US isolates 2010-2012, isolate CID 2801947, Rep 2",0.5 µg/mL
same,MIC,"[7]; US isolates 2010-2012, isolate CID 2801949, Rep 1",0.25 µg/mL
same,MIC,"[7]; US isolates 2010-2012, isolate CID 2801949, Rep 2",0.5 µg/mL
same,MIC,"[7]; US isolates 2010-2012, isolate CID 2802027, Rep 1",0.5 µg/mL
same,MIC,"[7]; US isolates 2010-2012, isolate CID 2802027, Rep 2",1 µg/mL
same,MIC,"[7]; US isolates 2010-2012, isolate CID 2802028, Rep 1",0.5 µg/mL
same,MIC,"[7]; US isolates 2010-2012, isolate CID 2802028, Rep 2",1 µg/mL
same,MIC,"[7]; US isolates 2010-2012, isolate CID 2802029, Rep 1",0.5 µg/mL
same,MIC,"[7]; US isolates 2010-2012, isolate CID 2802029, Rep 2",0.5 µg/mL
same,MIC,"[7]; US isolates 2010-2012, isolate CID 2802031, Rep 1",0.5 µg/mL
same,MIC,"[7]; US isolates 2010-2012, isolate CID 2802031, Rep 2",0.5 µg/mL
same,MIC,"[7]; US isolates 2010-2012, isolate CID 2802109, Rep 2",0.5 µg/mL
same,MIC,"[7]; US isolates 2010-2012, isolate CID 2802111, Rep 2",0.25 µg/mL
same,MIC,"[7]; US isolates 2010-2012, isolate CID 2802187, Rep 1",1 µg/mL
same,MIC,"[7]; US isolates 2010-2012, isolate CID 2802187, Rep 2",1 µg/mL

# Reference: PMC7311426, “An amphipathic peptide with antibiotic activity against multidrug-resistant Gram-negative bacteria” (Nature Communications, 2020)
